Data on two compounds can be found in patent US10246418B2, “Crystal form of lenvatinib methanesulfonate salt and preparation method thereof” (CRYSTAL PHARMATECH CO., LTD., priority 2015, dated 2019).

Converted amounts (≈) assume the structure as drawn.

Data set [1] in a line: Solubility comparison: saturated solutions in SGF, FaSSIF, FeSSIF and high purity water, concentration by HPLC. As to conditions: for Solubility: HPLC; for solubility at 24 h: thermodynamic from solid. As to the method: Solubility comparison between crystalline Form M of lenvatinib mesylate of the present disclosure and anhydrate Form C in patent CN1890220A:
Crystalline Form M of lenvatinib mesylate prepared in example 1 and anhydrate Form C in CN1890220A were prepared into saturated solution in pH 1.8 SGF (Simulated gastric fluid), pH 5.0 FeSSIF (Fed state simulated intestinal fluid), FassIF (Fasted state simulated intestinal fluid) and high purity water. Concentrations in the saturated solutions were determined after 24 hours by HPLC.

The nature of data set [2]: Stability assessment of crystalline form by XRPD before and after storage. In kind it is physicochemical. Particulars: 7 days. As to the method: FIG. 7a˜7c show XRPD patterns overlay of crystalline Form M of lenvatinib mesylate before and after stored in the following conditions for 7 days: a) sealed in aluminum plastic bags at 25° C./60% RH; b) sealed in aluminum plastic bags at 40° C./75% RH; c) sealed in aluminum plastic bags at 60° C./75% RH.
Stability assessment of Form M of lenvatinib mesylate of the present disclosure:
Three samples of crystalline Form M of lenvatinib mesylate were stored under the following conditions: a) sealed in aluminum plastic bags at 25° C./60% RH; b) sealed in aluminum plastic bags at 40° C./75% RH; c) sealed in aluminum plastic bags at 60° C./75% RH. The samples were tested by XRPD before and after stored for 7 days.

One may read the Solubility as the concentration that dissolves in the medium under given conditions. One may read the solubility as the dissolved amount per volume that the medium holds. Lower therefore signals a poorly soluble substance.

`COc1cc2nccc(Oc3ccc(NC(=O)NC4CC4)c(Cl)c3)c2cc1C(N)=O.CS(=O)(=O)O` [Form C, reference compound]: the Solubility in data set [1] (FaSSIF (fasted state simulated intestinal fluid), saturated solution, 24 h) is 0.0015 mg/mL; in data set [1] (FeSSIF (fed state simulated intestinal fluid) pH 5.0, saturated solution, 24 h) it was 0.0003 mg/mL; in data set [1] (High purity water, saturated solution, 24 h) it was 1.0 mg/mL; in data set [1] (SGF (simulated gastric fluid) pH 1.8, saturated solution, 24 h), 0.64 mg/mL.
Turning to `COc1cc2nccc(Oc3ccc(NC(=O)NC4CC4)c(Cl)c3)c2cc1C(N)=O` [Form M, 4-{3-Chloro-4-[(cyclopropylcarbamoyl)amino]phenoxy}-7-methoxy-6-quinolinecarboxamide], the “Solubility in comparison with Form C in patent CN1890220A” value in data set [1] (SGF, FaSSIF, FeSSIF, high purity water, 24 h) is “higher solubility”. The solubility at 24 h was 24 µg/mL (≈ 56.2 µM) in data set [1] (fasted state simulated intestinal fluid (FaSSIF), fassif); 0.4 µg/mL (≈ 0.937 µM) in data set [1] (fed state simulated intestinal fluid (FeSSIF), pH 5, fessif); 1600 µg/mL (≈ 3750 µM) in data set [1] (high purity water, water); 690 µg/mL (≈ 1620 µM) in data set [1] (simulated gastric fluid (SGF), pH 1.8, simulated gastric fluid). In addition, the “Crystalline form stability (XRPD pattern before and after storage)” value in data set [2] (sealed in aluminum plastic bags at 25° C./60% RH), in data set [2] (sealed in aluminum plastic bags at 40° C./75% RH) and in data set [2] (sealed in aluminum plastic bags at 60° C./75% RH) was “remained unchanged” each time.
